Target: T1, Endothelial lipase (EL) (Homo sapiens, UniProt Q9Y5X9)
T1 construct: transformed by RAGE technology (Athersys) to overexpress endogenous EL; endogenous in cells; the conditioned medium served as the enzyme source
T1 sequence (Q9Y5X9 21-500): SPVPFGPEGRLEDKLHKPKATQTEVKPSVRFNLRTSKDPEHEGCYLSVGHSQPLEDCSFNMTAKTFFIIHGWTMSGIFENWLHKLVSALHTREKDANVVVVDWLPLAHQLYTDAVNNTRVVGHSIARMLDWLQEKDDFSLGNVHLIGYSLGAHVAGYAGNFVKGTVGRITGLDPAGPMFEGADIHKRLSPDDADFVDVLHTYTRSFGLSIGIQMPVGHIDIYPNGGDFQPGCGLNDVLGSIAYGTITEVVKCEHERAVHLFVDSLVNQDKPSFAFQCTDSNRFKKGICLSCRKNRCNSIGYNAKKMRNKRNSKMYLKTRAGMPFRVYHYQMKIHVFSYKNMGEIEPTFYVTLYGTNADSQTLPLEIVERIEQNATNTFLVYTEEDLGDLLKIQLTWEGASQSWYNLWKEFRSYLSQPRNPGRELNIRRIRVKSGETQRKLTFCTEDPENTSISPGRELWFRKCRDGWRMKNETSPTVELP
Assay: Endothelial lipase (EL) enzymatic assay with fluorescent substrate A10070 in DMPG vesicles
Type: biochemical
Conditions: conditioned media from HT-1080 cells overexpressing endogenous EL; 20 min preincubation at 37° C.
Description: Endothelial lipase activity was measured using a fluorescent substrate, A10070, (Invitrogen, CA) doped into an artificial vesicle containing DMPG (Avanti Polar Lipids) as the excipient. Vesicles were prepared by combining 285 μL of 1 mM DMPG in a 1:1 mixture of MeOH and CHCl3 with 15 μL of 1 mM A10070 in a 1:1 mixture of MeOH and CHCl3. The mixture was dried under nitrogen and resuspended in 150 μL of 50 mM HEPES pH 8.0 buffer containing 100 mM NaCl and 0.2 mM EDTA. The sample was allowed to sit at rt for 15 min and then was sonicated 3×4 mins on ice with a Branson Sonicator using duty cycle 1. This preparation provides vesicles with a mole fraction of 0.05 for the FRET substrate.
The enzymatic assay was measured using white, opaque 96-well half area plates. Each well contained 60 μL of assay buffer (50 mM HEPES pH 8.0, 50 mM NaCl and 1 mM CaCl2) and 2 ul of a DMSO solution containing compound of interest. Conditioned media obtained from HT-1080 cells, which were transformed by RAGE technology (Athersys) to overexpress endogenous EL, was added and the reaction was allowed to incubate for 20 min at 37° C. with gentle agitation. The reaction was started by the addition of 20 μL of a 1:4 dilution of vesicles. The final total reaction volume was 100 μL. The reaction rates were measured on a Gemini plate reader with an excitation wavelength of 488 nm and an emission of 530 nm. Readings were taken every 20 seconds for 10 min with agitation between each reading. The slope of the linear portion of the readout was used to calculate the rate of the reaction.

| IC50 | Structure (SMILES) |
| --- | --- |
| 62 nM | N#CC(C(=O)NCC(=O)NC1CC1)c1nc2ccc(-c3ccc(C(=O)N4CCOCC4)cc3)cc2s1 (centres unmarked) [Example 14, 2-cyano-N-(2-(cyclopropylamino)-2-oxoethyl)-2-(6-(4-(morpholine-4-carbonyl)phenyl)benzo[d]thiazol-2-yl)acetamide] |
| 11 nM | N#CC(C(=O)NCC(=O)NC1CC1)c1nc2ccc(-c3ccc(C(=O)N4CCCCC4)cc3)cc2s1 (centres unmarked) [Example 13, 2-cyano-N-[(cyclopropyl-carbamoyl)methyl]-2-{6-[4-(piperidine-1-carbonyl)phenyl]-1,3-benzothiazol-2-yl} acetamide] |
